According to US20240316051A1, “A PHARMACEUTICAL COMBINATION AND USE THEREOF” (Ascentage Pharma (Suzhou) Co., Ltd., priority 2021, published 2024):
pIC50: −log10 of the molar value. Like-named read-outs stand apart in the source and are kept apart here.

Target: T1, EED (1-441)-His protein (Homo sapiens, UniProt O75530)
T1 construct: 20 nM EED (1-441)-His protein
Assay: EED-H3K27Me3 peptide competition binding assay by AlphaScreen
Details: read-out: Alpha screen
Description: EED-H3K27Me3 Peptide Competition Binding Assay by AlphaScreen (α-Screen):
The compounds at each concentration (2.5 μl of each) were transferred into a 384-well Perkin Elmer OptiPlate-384 white plates. 5 μl of solutions containing 20 nM EED (1-441)-His protein in the buffer (25 mM HEPES, pH 8, 0.02% Tween-20, 0.5% BSA) were added to the wells and then incubated with compound for 15 min. 2.5 μl of solutions containing 20 nM biotin-H3K27Me3 (19-33) peptide in the buffer (25 mM HEPES, pH 8, 0.02% Tween-20, 0.5% BSA) were added to the wells and then incubated with compound for 30 min. AlphaScreen detection beads mix was prepared immediately before use by mixing nickel chelate acceptor beads and streptavidin donor beads in a 1:1 ratio (Perkin Elmer, Product No. 6760619C/M/R) into the buffer described above. Then 10 μl of the detection beads mix was added to the plate and incubated in the dark at RT for 1 h. The final concentration of donor and acceptor beads was 10 μg/ml for each. Plates were read on CLARIOStar plate reader (BMG Labtech) using the AlphaScreen setting adapted for optimal signal detection with a 615 nm filter, after sample excitation at 680 nm. The emission signal at 615 nm was used to quantify compound inhibition. AlphaScreen signals were normalized based on the reading coming from the positive (maximum signal control) and negative controls (minimum signal control) to give percentage of activities left. The data were then fit to a dose response equation to get the IC50 values.

T1 sequence (O75530 whole entry): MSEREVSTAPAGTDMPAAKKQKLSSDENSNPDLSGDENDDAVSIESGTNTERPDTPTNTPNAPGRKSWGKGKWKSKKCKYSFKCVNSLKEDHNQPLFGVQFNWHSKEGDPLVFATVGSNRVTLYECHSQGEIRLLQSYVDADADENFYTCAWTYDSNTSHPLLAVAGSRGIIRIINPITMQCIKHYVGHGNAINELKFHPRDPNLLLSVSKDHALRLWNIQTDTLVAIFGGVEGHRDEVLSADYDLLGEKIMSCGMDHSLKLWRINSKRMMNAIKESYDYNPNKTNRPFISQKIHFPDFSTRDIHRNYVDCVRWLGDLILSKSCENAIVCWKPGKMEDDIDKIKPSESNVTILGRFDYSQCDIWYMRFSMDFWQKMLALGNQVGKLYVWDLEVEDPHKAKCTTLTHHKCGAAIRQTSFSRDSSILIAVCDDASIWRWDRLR

pIC50 (Table 4A)	pIC50 (IC50 class, Table 4B)	Compound
8.41		O=C1c2ncn3c(NCc4c(F)ccc5c4CCO5)ncc(c23)-c2ccc(C(F)(F)F)cc2CN1CC1COCCO1 (centres unmarked) [Compound 68, 4-((1,4-dioxan-2-yl)methyl)-12-(((5-fluoro-2,3-dihydrobenzofuran-4-yl)methyl)amino)-7-(trifluoro-methyl)-4,5-dihydro-3H-2,4,11,12a-tetraazabenzo [4,5]cycloocta[1,2,3-cd]inden-3-one]
	7.00 to 8.00	Cc1ccc2c(n1)CCN(CC(F)(F)F)C(=O)c1ncn3c(NCc4c(F)ccc5c4CCO5)ncc-2c13 [E 30, 13-(((5-fluoro-2,3-dihydrobenzofuran-4-yl)methyl)amino)-8-methyl-4-(2,2,2-trifluoroethyl)-5,6-dihydro-2,4,7,12,13a-pentaazabenzo[4,5] cyclonona[1,2,3-cd]inden-3(4H)-one]
9.22		O=C1c2ncn3c(NCc4c(F)ccc5c4CCO5)ncc(c23)-c2ccc(C(F)(F)F)nc2CN1C1CC1 [Compound 41, 4-cyclopropyl-12-(((5-fluoro-2,3-dihydrobenzofuran-4-yl)methyl)amino)-7-(trifluoromethyl)-4,5-dihydro-3H-2,4,6,11,12a-pentaazabenzo[4,5] cycloocta[1,2,3-cd]inden-3-one]
7.66		O=S1(=O)CCc2cc(F)ccc2-c2cnc(NCc3c(F)ccc4c3CCO4)n3cnc1c23 [Compound 96, 7-fluoro-12-(((5-fluoro-2,3-dihydrobenzofuran-4-yl)methyl)amino)-4,5-dihydro-3-thia-2,11,12a-triazabenzo[4,5]cycloocta[1,2,3-cd]indene 3,3-dioxide]
	7.00 to 8.00	CCc1cnc2n1Cc1cc(C(F)(F)F)ncc1-c1cnc(NCc3c(F)ccc4c3CCO4)n3cnc-2c13 [E 37, 5-ethyl-N-((5-fluoro-2,3-dihydrobenzofuran-4-yl)methyl)-8-(trifluoromethyl)-6H-2,3,5a,9,12,13a-hexaazabenzo[4,5]cyclopenta[7,8]cycloocta[1,2,3-cd]inden-13-amine]
9.08		O=C1OCc2cc(F)ccc2-c2cnc(NCc3cccc4c3CCO4)n3cnc1c23 [Compound 9, 12-(((2,3-dihydrobenzofuran-4-yl)methyl)amino)-7-fluoro-3H,5H-4-oxa-2,11,12a-triazabenzo[4,5] cycloocta[1,2,3-cd]inden-3-one]
8.93		O=C1NCc2ccc(F)cc2-c2cnc(NCc3c(F)ccc4c3CCO4)n3cnc1c23 [Compound 23, 8-fluoro-12-(((5-fluoro-2,3-dihydrobenzofuran-4-yl)methyl)amino)-4,5-dihydro-3H-2,4,11,12a-tetra azabenzo[4,5]cycloocta[1,2,3-cd]inden-3-one]
8.71		O=C1OCc2cc(C(F)(F)F)ccc2-c2cnc(NCc3c(F)ccc4c3CCO4)n3cnc1c23 [Compound 8, 12-(((5-fluoro-2,3-dihydrobenzofuran-4-yl)methyl)amino)-7-(trifluoromethyl)-3H,5H-4-oxa-2,11,12a-triazabenzo[4,5]cycloocta[1,2,3-cd]inden-3-one]
< 7.00		COc1cccc(F)c1CNc1ncc2c3c(ncn13)C(=O)N(C1CC1)Cc1cc(C(F)(F)F)ncc1-2 [Compound 70, 4-cyclopropyl-12-((2-fluoro-6-methoxybenzyl)amino)-7-(trifluoromethyl)-4,5-dihydro-3H-2,4,8, 11,12a-pentaazabenzo[4,5]cycloocta[1,2,3-cd] inden-3-one]
8.84		O=C1c2ncn3c(NCc4c(F)ccc5c4CCO5)ncc(c23)-c2cnc(C(F)(F)F)cc2CN1C1CC1 [Compound 36, 4-cyclopropyl-12-(((5-fluoro-2,3-dihydrobenzofuran-4-yl)methyl)amino)-7-(trifluoromethyl)-4,5-dihydro-3H-2,4,8,11,12a-pentaazabenzo[4,5]cycloocta[1,2,3-cd]inden-3-one]
8.54		O=C1c2ncn3c(NCc4c(F)ccc5c4CCO5)ncc(c23)-c2ccc(C(F)(F)F)cc2CN1C1CC1 [Compound 67, 4-cyclopropyl-12-(((5-fluoro-2,3-dihydrobenzo-furan-4-yl)methyl)amino)-7-(trifluoromethyl)-4,5-dihydro-3H-2,4,11,12a-tetraazabenzo[4,5]cycloocta [1,2,3-cd]inden-3-one]
	> 8.00	CC(C)c1ccc2c(n1)CN(CC(F)F)C(=O)c1ncn3c(NCc4c(F)ccc5c4CCO5)ncc-2c13 [E 47, 4-(2,2-difluoroethyl)-12-(((5-fluoro-2,3-dihydrobenzofuran-4-yl)methyl)amino)-7-isopropyl-4,5-dihydro-3H-2,4,6,11,12a-pentaazabenzo[4,5]cycloocta[1,2,3-cd]inden-3-one]
7.85		O=S1(=O)Cc2ncccc2-c2cnc(NCc3c(F)ccc4c3CCO4)n3cnc1c23 [Compound 94, 11-(((5-fluoro-2,3-dihydrobenzofuran-4-yl)methyl)amino)-4H-3-thia-2,5,10,11a-tetraazadibenzo [cd,f]azulene 3,3-dioxide]
9.15		O=C1c2ncn3c(NCc4c(F)ccc5c4CCO5)ncc(c23)-c2ccc(C(F)(F)F)nc2CN1CC1CCOC1 (centres unmarked) [Compound 52, 12-(((5-fluoro-2,3-dihydrobenzofuran-4-yl)methyl)amino)-4-((tetrahydrofuran-3-yl)methyl)-7-(trifluoro-methyl)-4,5-dihydro-3H-2,4,6,11,12a-pentaaza benzo[4,5]cycloocta[1,2,3-cd]inden-3-one]
9.22		O=C1OCc2cc(OC(F)(F)F)ccc2-c2cnc(NCc3c(F)ccc4c3CCO4)n3cnc1c23 [Compound 31, 12-(((5-fluoro-2,3-dihydrobenzofuran-4-yl)methyl)amino)-7-(trifluoromethoxy)-3H,5H-4-oxa-2,11, 12a-triazabenzo[4,5]cycloocta[1,2,3-cd]inden-3-one]
7.70		COc1cccc(F)c1CNc1ncc2c3c(ncn13)C(=O)N(C1CC1)Cc1nc(C(F)(F)F)ccc1-2 [Compound 69, 4-cyclopropyl-12-((2-fluoro-6-methoxybenzyl)amino)-7-(trifluoromethyl)-4,5-dihydro-3H-2,4,6, 11,12a-pentaazabenzo[4,5]cycloocta[1,2,3-cd] inden-3-one]
	> 8.00	CC(C)(C)c1ccc2c(n1)CN(CC(F)(F)F)C(=O)c1ncn3c(NCc4c(F)ccc5c4CCO5)ncc-2c13 [E 50, 7-(tert-butyl)-12-(((5-fluoro-2,3-dihydrobenzofuran-4-yl)methyl)amino)-4-(2,2,2-trifluoroethyl)-4,5-dihydro-3H-2,4,6,11,12a-pentaazabenzo[4,5] cycloocta[1,2,3-cd]inden-3-one]
8.78		CC(C)(O)CN1Cc2cc(C(F)(F)F)ncc2-c2cnc(NCc3c(F)ccc4c3CCO4)n3cnc(c23)C1=O [Compound 48, 12-(((5-fluoro-2,3-dihydrobenzofuran-4-yl)methyl)amino)-4-(2-hydroxy-2-methylpropyl)-7-(trifluoro-methyl)-4,5-dihydro-3H-2,4,8,11,12a-pentaaza-benzo[4,5]cycloocta[1,2,3-cd]inden-3-one]
9.03		O=C1c2ncn3c(NCc4c(F)ccc5c4CCO5)ncc(c23)-c2cnc(C(F)(F)F)cc2CN1CC1COCCO1 (centres unmarked) [Compound 37, 4-((1,4-dioxan-2-yl)methyl)-12-(((5-fluoro-2,3-dihydrobenzofuran-4-yl)methyl)amino)-7-(trifluoro-methyl)-4,5-dihydro-3H-2,4,8,11,12a-pentaazabenzo [4,5]cycloocta[1,2,3-cd]inden-3-one]
	> 8.00	O=C1c2ncn3c(NCc4c(F)ccc5c4CCO5)ncc(c23)-c2ccc(C3CCOCC3)nc2CN1CC(F)(F)F [E 45, 12-(((5-fluoro-2,3-dihydrobenzofuran-4-yl)methyl)amino)-7-(tetrahydro-2H-pyran-4-yl)-4-(2,2,2-trifluoroethyl)-4,5-dihydro-3H-2,4,6,11,12a-pentaazabenzo[4,5]cycloocta[1,2,3-cd]inden-3-one]
	> 8.00	Cc1cc2c(cn1)-c1cnc(NCc3c(F)ccc4c3CCO4)n3cnc(c13)C(=O)N(CC(F)F)C2 [E 9, 4-(2,2-difluoroethyl)-12-(((5-fluoro-2,3-dihydro-benzofuran-4-yl)methyl)amino)-7-methyl-4,5-dihydro-3H-2,4,8,11,12a-pentaazabenzo[4,5] cycloocta[1,2,3-cd]inden-3-one]
	7.00 to 8.00	CC(C)N1CCc2cc(C(F)(F)F)ncc2-c2cnc(NCc3c(F)ccc4c3CCO4)n3cnc(c23)C1=O [E 31, 13-(((5-fluoro-2,3-dihydrobenzofuran-4-yl)methyl)amino)-4-isopropyl-8-(trifluoromethyl)-5,6-dihydro-2,4,9,12,13a-pentaazabenzo[4,5]cyclonona[1,2,3-cd]inden-3(4H)-one]
8.47		O=C1c2ncn3c(NCc4c(F)ccc5c4CCO5)ncc(c23)-c2cnc(C(F)(F)F)cc2CN1CC1CCOCC1 [Compound 45, 12-(((5-fluoro-2,3-dihydrobenzofuran-4-yl)methyl)amino)-4-((tetrahydro-2H-pyran-4-yl)methyl)-7-(trifluoromethyl)-4,5-dihydro-3H-2,4,8,11,12a-pentaazabenzo[4,5]cycloocta[1,2,3-cd]inden-3-one]
